Laboratory results taken from patent US20100317524A1, “Sulfonylureas” (Bayer CropScience AG, priority 2005, published 2010).

Assays:
[1] = tested on: weed plants such as Sinapis alba, Echinochloa crus-galli, Lolium multiflorum, Chrysanthemum segetum, Setaria viridis, Abutilon theophrasti, Amaranthus …; experiment: Post-emergence effect on weeds (greenhouse pot test, visual scoring); assay type: in vivo; conditions: applied post-emergence (three-leaf stage) at a rate of 0.3 kg or less of active substance per hectare; visual scoring after about 3 to 4 weeks vs untreated controls
Experimental: Seeds or sections of rhizome from monocot and dicot broadleaf weeds were laid out in sandy loam soil in plastic pots, covered with earth, and cultivated in a greenhouse under good growth conditions. Three weeks after sowing, the test plants were treated at the three-leaf stage. The compounds of the invention, formulated as wettable powders or as emulsion concentrates, were sprayed in different dosages onto the green parts of the plants, at an application rate of 600 to 800 l of water per hectare (converted). After the test plants had stood in the greenhouse under optimum growth conditions for a period of about 3 to 4 weeks, the effect of the products was scored visually in comparison to untreated controls.

[2] = tested on: weed plants such as Sinapis alba, Chrysanthemum segetum, Avena sativa, Stellaria media, Echinochloa crus-galli, Lolium multiflorum, Setaria viridis, Abutilon …; experiment: Pre-emergence effect on weeds (greenhouse pot test, visual scoring); assay type: in vivo; conditions: applied pre-emergence at a rate of 0.3 kg or less of active substance per hectare; visual scoring after 3 to 4 weeks vs untreated controls
From the text: Seeds or sections of rhizome from monocot and dicot weed plants were laid out in sandy loam soil in cardboard pots, and covered with soil. The compounds of the invention, formulated as wettable powders or emulsifiable concentrates, were then applied, in the form of aqueous suspensions or emulsions, at various dosages, onto the surface of the covering earth, at an application rate of 600 to 800 l of water per hectare (converted). Following the treatment, the pots were placed in a greenhouse and maintained under good growth conditions for the weeds. Visual scoring of the plant damage or emergence damage was made when the test plants had emerged, after a test time of 3 to 4 weeks, in comparison to untreated controls.

Q: For `COc1cc(OC)nc(NC(=O)NS(=O)(=O)c2c(F)cccc2I)n1` [Compound 1.001], which “herbicidal action against weed plants, post-emergence” value (shortened to “herbicidal action … post-emergence”) [1] is on record?
A: The value was “very good herbicidal action”.

Q: And the “herbicidal action against weed plants, pre-emergence” value (from here on “herbicidal action … pre-emergence”) [2]?
A: The value was “very good herbicidal action”.

Q: `COc1nc(C)nc(NC(=O)NS(=O)(=O)c2c(F)cccc2I)n1` [Compound 1.002] was tested. Which “herbicidal action … post-emergence” value [1] did it give?
A: Its value is “very good herbicidal action”.

Q: What about the “herbicidal action … pre-emergence” value [2] of the same molecule?
A: The value was “very good herbicidal action”.

Q: What does the source list for `Cc1cc(C)nc(NC(=O)NS(=O)(=O)c2c(F)cccc2I)n1` [Compound 1.003]?
A: herbicidal action against weed plants, post-emergence [1]: very good herbicidal action; herbicidal action against weed plants, pre-emergence [2]: very good herbicidal action

Q: How did the “herbicidal action … post-emergence” value [1] turn out when `COc1cc(Cl)nc(NC(=O)NS(=O)(=O)c2c(F)cccc2I)n1` [Compound 1.004] was run?
A: Its value is “very good herbicidal action”.

Q: And the “herbicidal action … pre-emergence” value [2]?
A: Its value is “very good herbicidal action”.

Q: Which results are given for `COc1cc(OC)nc(NC(=O)NS(=O)(=O)c2c(C)cccc2I)n1` [Compound 1.012]?
A: herbicidal action against weed plants, post-emergence [1]: very good herbicidal action; herbicidal action against weed plants, pre-emergence [2]: very good herbicidal action

Q: Which results are given for `COc1nc(C)nc(NC(=O)NS(=O)(=O)c2c(C)cccc2I)n1` [Compound 1.016]?
A: herbicidal action against weed plants, post-emergence [1]: very good herbicidal action; herbicidal action against weed plants, pre-emergence [2]: very good herbicidal action

Q: `Cc1cc(C)nc(NC(=O)NS(=O)(=O)c2c(C)cccc2I)n1` [Compound 1.020] was tested. Which “herbicidal action … post-emergence” value [1] did it give?
A: Its value is “very good herbicidal action”.

Q: And the “herbicidal action … pre-emergence” value [2]?
A: Its value is “very good herbicidal action”.

Q: With `COc1cc(Cl)nc(NC(=O)NS(=O)(=O)c2c(C)cccc2I)n1` [Compound 1.021] as the molecule, how does the “herbicidal action … post-emergence” value [1] read?
A: The value was “very good herbicidal action”.

Q: And the “herbicidal action … pre-emergence” value [2]?
A: The value was “very good herbicidal action”.

Q: Which “herbicidal action … post-emergence” value [1] does the source give for `COc1nc(NC(=O)NS(=O)(=O)c2c(C)cccc2I)nc(OC)n1` [Compound 1.025] here?
A: Its value is “very good herbicidal action”.

Q: What about the “herbicidal action … pre-emergence” value [2] of the same molecule?
A: Its value is “very good herbicidal action”.

Q: What does the source list for `COc1cc(OC)nc(NC(=O)NS(=O)(=O)c2c(I)cccc2C(F)(F)F)n1` [Compound 1.091]?
A: herbicidal action against weed plants, post-emergence [1]: very good herbicidal action; herbicidal action against weed plants, pre-emergence [2]: very good herbicidal action

Q: What does the source list for `COc1nc(C)nc(NC(=O)NS(=O)(=O)c2c(I)cccc2C(F)(F)F)n1` [Compound 1.095]?
A: herbicidal action against weed plants, post-emergence [1]: very good herbicidal action; herbicidal action against weed plants, pre-emergence [2]: very good herbicidal action

Q: `Cc1cc(C)nc(NC(=O)NS(=O)(=O)c2c(I)cccc2C(F)(F)F)n1` [Compound 1.099] was tested. Which “herbicidal action … post-emergence” value [1] did it give?
A: The value was “very good herbicidal action”.

Q: And the “herbicidal action … pre-emergence” value [2]?
A: Its value is “very good herbicidal action”.

Q: With `COc1cc(Cl)nc(NC(=O)NS(=O)(=O)c2c(I)cccc2C(F)(F)F)n1` [Compound 1.100] as the molecule, how does the “herbicidal action … post-emergence” value [1] read?
A: The value was “very good herbicidal action”.

Q: And the “herbicidal action … pre-emergence” value [2]?
A: Its value is “very good herbicidal action”.

Q: With `COc1nc(NC(=O)NS(=O)(=O)c2c(I)cccc2C(F)(F)F)nc(OC)n1` [Compound 1.104] as the molecule, how does the “herbicidal action … post-emergence” value [1] read?
A: Its value is “very good herbicidal action”.

Q: And the “herbicidal action … pre-emergence” value [2]?
A: The value was “very good herbicidal action”.

Q: `COc1cc(OC)nc(NC(=O)NS(=O)(=O)c2c(I)cccc2OC)n1` [Compound 1.146, N-{[(4,6-Dimethoxypyrimidin-2-yl)amino]carbonyl}-2-iodo-6-methoxybenzenesulfonamide] was tested. Which “herbicidal action … post-emergence” value [1] did it give?
A: Its value is “very good herbicidal action”.

Q: And the “herbicidal action … pre-emergence” value [2]?
A: The value was “very good herbicidal action”.

Q: `COc1nc(C)nc(NC(=O)NS(=O)(=O)c2c(I)cccc2OC)n1` [Compound 1.150] was tested. Which “herbicidal action … post-emergence” value [1] did it give?
A: Its value is “very good herbicidal action”.

Q: And the “herbicidal action … pre-emergence” value [2]?
A: The value was “very good herbicidal action”.

Q: What does the source list for `COc1cccc(I)c1S(=O)(=O)NC(=O)Nc1nc(C)cc(C)n1` [Compound 1.154]?
A: herbicidal action against weed plants, post-emergence [1]: very good herbicidal action; herbicidal action against weed plants, pre-emergence [2]: very good herbicidal action

Q: For `COc1cc(Cl)nc(NC(=O)NS(=O)(=O)c2c(I)cccc2OC)n1` [Compound 1.155], which “herbicidal action … post-emergence” value [1] is on record?
A: The value was “very good herbicidal action”.

Q: What about the “herbicidal action … pre-emergence” value [2] of the same molecule?
A: The value was “very good herbicidal action”.

Q: Which “herbicidal action … post-emergence” value [1] does the source give for `COc1nc(NC(=O)NS(=O)(=O)c2c(I)cccc2OC)nc(OC)n1` [Compound 1.159] here?
A: Its value is “very good herbicidal action”.

Q: What about the “herbicidal action … pre-emergence” value [2] of the same molecule?
A: The value was “very good herbicidal action”.

Q: What does the source list for `CCOc1cccc(I)c1S(=O)(=O)NC(=O)Nc1nc(OC)cc(OC)n1` [Compound 1.164]?
A: herbicidal action against weed plants, post-emergence [1]: very good herbicidal action; herbicidal action against weed plants, pre-emergence [2]: very good herbicidal action

Q: For `CCOc1cccc(I)c1S(=O)(=O)NC(=O)Nc1nc(C)nc(OC)n1` [Compound 1.165], which “herbicidal action … post-emergence” value [1] is on record?
A: The value was “very good herbicidal action”.

Q: And the “herbicidal action … pre-emergence” value [2]?
A: Its value is “very good herbicidal action”.

Q: With `CCOc1cccc(I)c1S(=O)(=O)NC(=O)Nc1nc(C)cc(C)n1` [Compound 1.166] as the molecule, how does the “herbicidal action … post-emergence” value [1] read?
A: The value was “very good herbicidal action”.

Q: What about the “herbicidal action … pre-emergence” value [2] of the same molecule?
A: Its value is “very good herbicidal action”.

Q: Which results are given for `CCOc1cccc(I)c1S(=O)(=O)NC(=O)Nc1nc(Cl)cc(OC)n1` [Compound 1.167]?
A: herbicidal action against weed plants, post-emergence [1]: very good herbicidal action; herbicidal action against weed plants, pre-emergence [2]: very good herbicidal action

Q: Which results are given for `CCOc1cccc(I)c1S(=O)(=O)NC(=O)Nc1nc(OC)nc(OC)n1` [Compound 1.168]?
A: herbicidal action against weed plants, post-emergence [1]: very good herbicidal action; herbicidal action against weed plants, pre-emergence [2]: very good herbicidal action

Q: With `CCCOc1cccc(I)c1S(=O)(=O)NC(=O)Nc1nc(OC)cc(OC)n1` [Compound 1.171] as the molecule, how does the “herbicidal action … post-emergence” value [1] read?
A: Its value is “very good herbicidal action”.

Q: What about the “herbicidal action … pre-emergence” value [2] of the same molecule?
A: The value was “very good herbicidal action”.

Q: `CCCOc1cccc(I)c1S(=O)(=O)NC(=O)Nc1nc(C)cc(C)n1` [Compound 1.173] was tested. Which “herbicidal action … post-emergence” value [1] did it give?
A: The value was “very good herbicidal action”.

Q: What about the “herbicidal action … pre-emergence” value [2] of the same molecule?
A: The value was “very good herbicidal action”.

Q: Which “herbicidal action … post-emergence” value [1] does the source give for `CCCOc1cccc(I)c1S(=O)(=O)NC(=O)Nc1nc(Cl)cc(OC)n1` [Compound 1.174] here?
A: The value was “very good herbicidal action”.

Q: What about the “herbicidal action … pre-emergence” value [2] of the same molecule?
A: The value was “very good herbicidal action”.

Q: How did the “herbicidal action … post-emergence” value [1] turn out when `CCCOc1cccc(I)c1S(=O)(=O)NC(=O)Nc1nc(OC)nc(OC)n1` [Compound 1.175] was run?
A: The value was “very good herbicidal action”.

Q: And the “herbicidal action … pre-emergence” value [2]?
A: Its value is “very good herbicidal action”.

Q: `COc1cc(OC)nc(NC(=O)NS(=O)(=O)c2c(I)cccc2OC(C)C)n1` [Compound 1.178] was tested. Which “herbicidal action … post-emergence” value [1] did it give?
A: The value was “very good herbicidal action”.

Q: And the “herbicidal action … pre-emergence” value [2]?
A: The value was “very good herbicidal action”.

Q: Which results are given for `COc1nc(C)nc(NC(=O)NS(=O)(=O)c2c(I)cccc2OC(C)C)n1` [Compound 1.182]?
A: herbicidal action against weed plants, post-emergence [1]: very good herbicidal action; herbicidal action against weed plants, pre-emergence [2]: very good herbicidal action

Q: With `Cc1cc(C)nc(NC(=O)NS(=O)(=O)c2c(I)cccc2OC(C)C)n1` [Compound 1.186] as the molecule, how does the “herbicidal action … post-emergence” value [1] read?
A: Its value is “very good herbicidal action”.

Q: And the “herbicidal action … pre-emergence” value [2]?
A: The value was “very good herbicidal action”.
